Assay results as given in patent US8822449B2, “Substituted aminoindanes and analogs thereof, and the pharmaceutical use thereof” (Sanofi, priority 2008, dated 2014).

target: T1, sodium-proton exchanger of subtype 3 (NHE3) (Homo sapiens, UniProt P48764); assay: Recovery of intracellular pH (pHi) after acidification in LAP1 cells stably expressing NHE3 (BCECF fluorescence, FLIPR); type: cell-based; conditions: Activity range (inhibitory effect on NHE3), LAP1 cells stably expressing NHE3; pH recovery after acidification; range 1 is % inhibition at 10 μM
T1 construct: expressed in transfected cells
T1 sequence (P48764 26-834): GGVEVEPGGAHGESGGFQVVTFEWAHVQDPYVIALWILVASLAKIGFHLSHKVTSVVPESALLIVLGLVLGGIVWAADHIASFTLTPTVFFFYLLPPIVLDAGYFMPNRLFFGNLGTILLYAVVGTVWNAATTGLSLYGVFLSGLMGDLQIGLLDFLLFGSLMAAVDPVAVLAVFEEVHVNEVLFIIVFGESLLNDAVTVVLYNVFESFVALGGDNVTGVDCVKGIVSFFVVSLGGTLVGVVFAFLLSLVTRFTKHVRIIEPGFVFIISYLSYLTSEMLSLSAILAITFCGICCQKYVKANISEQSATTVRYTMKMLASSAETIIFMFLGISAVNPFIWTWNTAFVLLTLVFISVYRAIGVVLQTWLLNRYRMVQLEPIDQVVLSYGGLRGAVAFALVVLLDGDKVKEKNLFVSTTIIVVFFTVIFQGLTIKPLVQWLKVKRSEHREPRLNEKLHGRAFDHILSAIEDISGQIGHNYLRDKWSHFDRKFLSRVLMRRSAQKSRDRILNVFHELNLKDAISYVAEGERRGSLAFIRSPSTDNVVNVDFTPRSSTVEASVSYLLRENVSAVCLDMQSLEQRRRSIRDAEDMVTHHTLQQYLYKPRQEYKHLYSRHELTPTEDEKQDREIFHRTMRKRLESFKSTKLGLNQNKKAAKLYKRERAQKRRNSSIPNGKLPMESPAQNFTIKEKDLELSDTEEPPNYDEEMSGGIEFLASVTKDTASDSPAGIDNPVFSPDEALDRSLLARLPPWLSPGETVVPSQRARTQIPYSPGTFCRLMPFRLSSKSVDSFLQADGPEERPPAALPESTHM

| SMILES | IC50 |
| --- | --- |
| Cc1nncn1-c1ccc(O[C@H]2c3ccccc3C[C@@H]2N2CCCC2)cc1 (racemic) [Example 453, 3-methyl-4-[4-(rac-trans-(1,2)-2-pyrrolidin-1-ylindan-1-yloxy)phenyl]-4H-[1,2,4]triazole] | < 1000 nM |

same assay, conditions: LAP1 cells stably expressing NHE3; pH recovery after acidification; range 1 is % inhibition at 10 μM; read-out: Activity range (inhibitory effect on NHE3)

| SMILES | IC50 | inhibition at 10 µM |
| --- | --- | --- |
| CS(=O)(=O)c1ccc(O[C@H]2c3cc(Cl)cc(Cl)c3C[C@@H]2N2CCC(F)(F)CC2)cc1 [Example 250, 1-[(1S,2S)-4,6-dichloro-1-(4-methanesulfonylphenoxy)indan-2-yl]-4,4-difluoropiperidine] | – | 20 to 50% |
| NC(=O)Nc1cccc(O[C@@H]2c3ccccc3C[C@H]2N2CCC(N)C2)c1 (mixture of isomers) [Example 234, {3-[rac-trans-(1,2)-2-(3-aminopyrrolidin-1-yl)indan-1-yloxy]phenyl}urea] | 1000 to 10000 nM | – |
| N[C@H]1CCCN([C@H]2CCc3ccccc3[C@@H]2Oc2ccc(OC(F)F)cc2)C1 (racemic) [Example 176, (S)-1-[rac-trans-(1,2)-1-(4-difluoromethoxyphenoxy)-1,2,3,4-tetrahydronaphthalen-2-yl]piperidin-3-ylamine] | – | 20 to 50% |
| NCC1CCN([C@@H]2Cc3ccccc3[C@H]2Oc2ccc(NC(=O)OCc3ccccc3)cc2)C1 (mixture of isomers) [Example 240, {4-[rac-trans-(1,2)-2-(3-aminomethylpyrrolidin-1-yl)indan-1-yloxy]phenyl}carbamic acid benzyl ester] | 1000 to 10000 nM | – |
| Cc1cc(O[C@@H]2c3cc(Cl)cc(F)c3C[C@H]2N2CCC[C@@H](N)C2)ccc1S(=O)(=O)C(F)(F)F (racemic) [Example 92, (R)-1-[rac-trans-(1,2)-6-chloro-4-fluoro-1-(3-methyl-4-trifluoromethanesulfonylphenoxy)indan-2-yl]piperidin-3-ylamine] | – | 20 to 50% |
| N[C@H]1CCCN([C@H]2CCc3ccccc3[C@@H]2Oc2ccc(N3CCNCC3)cc2)C1 (racemic) [Example 184, (S)-1-[rac-trans-(1,2)-1-(4-piperazin-1-ylphenoxy)-1,2,3,4-tetrahydronaphthalen-2-yl]piperidin-3-ylamine] | – | 20 to 50% |
| CS(=O)(=O)c1ccc(O[C@H]2c3cc(Cl)cc(Cl)c3C[C@@H]2N2CCC[C@@H](NCCC(F)(F)F)C2)cc1 [Example 223, {(R)-1-[trans-(1S,2S)-4,6-dichloro-1-(4-methanesulfonylphenoxy)indan-2-yl]piperidin-3-yl}-(3,3,3-trifluoropropyl)amine] | < 1000 nM | – |

Further lines, results first:

| IC50 | inhibition at 10 µM | SMILES |
| --- | --- | --- |
| < 1000 nM | – | COCCN1CCCN([C@H]2Cc3c(Cl)cc(Cl)cc3[C@@H]2Oc2ccc(-n3c(C)nnc3C)cc2)CC1 [Example 348, 1-{trans-(1S,2S)-4,6-dichloro-1-[4-(3,5-dimethyl-[1,2,4]triazol-4-yl)phenoxy]indan-2-yl}-4-(2-methoxyethyl)-[1,4]diazepane] |
| < 1000 nM | – | Cc1nnc(C)n1-c1ccc(O[C@H]2c3cc(Cl)ccc3C[C@@H]2N2CC[C@@H](F)C2)c(Cl)c1 [Example 558, 4-{3-chloro-4-[trans-(1S,2S)-6-chloro-2-((R)-3-fluoropyrrolidin-1-yl)indan-1-yloxy]phenyl}-3,5-dimethyl-4H-[1,2,4]triazole] |
| 1000 to 10000 nM | – | Cc1nnc(C)n1-c1ccc(C(=O)O[C@H]2c3cc(Cl)cc(Cl)c3C[C@@H]2N2CC[C@@H](O)C2)c(Cl)c1 [Example 710, 2-Chloro-4-(3,5-dimethyl-[1,2,4]triazol-4-yl)-benzoic acid trans-(1S,2S)-4,6-dichloro-2-((R)-3-hydroxy-pyrrolidin-1-yl)-indan-1-yl ester] |
| – | 20 to 50% | O=C(O[C@H]1c2ccccc2C[C@@H]1N1CCCC1)c1ccc(N2C(=O)CCC2=O)cc1 [Example 458, 4-(2,5-dioxopyrrolidin-1-yl)benzoic acid (1S,2S)-2-pyrrolidin-1-ylindan-1-yl ester] |
| < 1000 nM | – | CN1CC(=O)N(c2ccc(Cl)c(O[C@H]3c4cc(Cl)cc(Cl)c4C[C@@H]3N3CC[C@@H](O)C3)c2)C1=O [Example 430, 3-{4-chloro-3-[(1S,2S)-4,6-dichloro-2-((R)-3-hydroxypyrrolidin-1-yl)indan-1-yloxy]phenyl}-1-methylimidazolidine-2,4-dione] |
| 1000 to 10000 nM | – | CC(=O)Nc1cccc(O[C@@H]2c3ccccc3C[C@H]2N2CCC[C@H](N)C2)c1 (racemic) [Example 685, N-{3-[rac-trans-(1,2)-2-((S)-3-aminopiperidin-1-yl)indan-1-yloxy]phenyl}acetamide] |
| – | 20 to 50% | N[C@H]1CCCN([C@H]2CCc3ccccc3[C@@H]2Oc2ccc3oc(=O)sc3c2)C1 (racemic) [Example 580, 5-[rac-trans-(1,2)-2-((S)-3-aminopiperidin-1-yl)-1,2,3,4-tetrahydronaphthalen-1-yloxy]benzo[1,3]oxathiol-2-one] |
| 1000 to 10000 nM | – | CCc1nc(C)cn1-c1ccc(O[C@H]2c3cc(Cl)cc(F)c3C[C@@H]2N2CC[C@@H](O)C2)cc1 [Example 719, (R)-1-{trans-(1S,2S)-6-Chloro-1-[4-(2-ethyl-4-methyl-imidazol-1-yl)-phenoxy]-4-fluoro-indan-2-yl}-pyrrolidin-3-ol] |
| 1000 to 10000 nM | – | CC(=O)Nc1cccc(OC2c3ccccc3CC2N(C)C)c1 (racemic) [Example 638, N-[3-(rac-trans-(1,2)-2-dimethylaminoindan-1-yloxy)phenyl]acetamide] |
| – | 20 to 50% | CS(=O)(=O)c1ccc(O[C@H]2c3cc(Cl)cc(Cl)c3C[C@@H]2N2CCN(C3CC3)CC2)cc1 [Example 351, 1-Cyclopropyl-4-[trans-(1S,2S)-4,6-dichloro-1-(4-methanesulfonylphenoxy)indan-2-yl]piperazine] |
| – | 20 to 50% | CC(=O)Nc1cccc(O[C@H]2c3ccccc3C[C@@H]2N2CCNCC2)c1 (racemic) [Example 639, N-[3-(rac-trans-(1,2)-2-piperazin-1-ylindan-1-yloxy)phenyl]acetamide] |
